These results are taken from ChEMBL document CHEMBL4808148, “HDAC6 screening dataset using tau-based substrate in an enzymatic assay yields selective inhibitors and activators” (2021).

Assay [1] deals with T1, Protein deacetylase HDAC6 (Homo sapiens, UniProt Q9UBN7).
T1 sequence (Q9UBN7 whole entry): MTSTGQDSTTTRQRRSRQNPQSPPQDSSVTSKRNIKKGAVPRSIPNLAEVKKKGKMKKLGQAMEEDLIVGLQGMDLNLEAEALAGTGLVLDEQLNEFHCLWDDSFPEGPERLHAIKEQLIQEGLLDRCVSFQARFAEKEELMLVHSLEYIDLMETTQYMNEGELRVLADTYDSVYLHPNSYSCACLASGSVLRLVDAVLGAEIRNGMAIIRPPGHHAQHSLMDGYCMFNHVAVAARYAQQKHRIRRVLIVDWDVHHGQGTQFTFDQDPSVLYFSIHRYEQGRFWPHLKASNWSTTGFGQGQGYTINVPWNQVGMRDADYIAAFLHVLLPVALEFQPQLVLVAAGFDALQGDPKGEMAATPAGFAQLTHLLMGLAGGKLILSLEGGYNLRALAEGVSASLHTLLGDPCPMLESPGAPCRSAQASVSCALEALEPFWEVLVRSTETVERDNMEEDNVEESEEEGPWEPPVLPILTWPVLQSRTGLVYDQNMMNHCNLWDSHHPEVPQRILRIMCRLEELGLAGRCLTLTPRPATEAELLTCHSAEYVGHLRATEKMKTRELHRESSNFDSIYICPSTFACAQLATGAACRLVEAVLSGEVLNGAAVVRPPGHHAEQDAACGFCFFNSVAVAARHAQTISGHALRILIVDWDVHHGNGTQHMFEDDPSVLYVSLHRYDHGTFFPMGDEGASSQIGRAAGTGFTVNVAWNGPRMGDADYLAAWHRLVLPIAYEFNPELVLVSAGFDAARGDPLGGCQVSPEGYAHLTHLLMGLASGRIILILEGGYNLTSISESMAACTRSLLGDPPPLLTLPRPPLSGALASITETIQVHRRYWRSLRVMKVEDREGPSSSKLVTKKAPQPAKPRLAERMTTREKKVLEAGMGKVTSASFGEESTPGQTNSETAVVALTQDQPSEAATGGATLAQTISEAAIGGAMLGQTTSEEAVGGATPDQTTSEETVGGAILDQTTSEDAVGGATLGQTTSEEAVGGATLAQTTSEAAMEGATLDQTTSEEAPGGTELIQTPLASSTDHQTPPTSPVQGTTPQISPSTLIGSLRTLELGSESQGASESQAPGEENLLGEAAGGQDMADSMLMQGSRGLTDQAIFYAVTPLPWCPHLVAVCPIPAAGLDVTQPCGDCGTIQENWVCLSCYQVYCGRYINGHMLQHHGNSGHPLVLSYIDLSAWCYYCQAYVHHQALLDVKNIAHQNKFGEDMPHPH

Assay [2] addresses Protein deacetylase HDAC6 (Homo sapiens) (UniProt Q9UBN7). The conditions noted are these: at 10 µM.
In assay [3] the target is T1, Protein deacetylase HDAC6. The source holds these as a separate data set.
Assay [4] addresses T2, Protein deacetylase HDAC6 (Homo sapiens) (UniProt Q9UBN7).
T2 sequence (whole entry): T1 sequence (Q9UBN7 whole entry)
Conditions: at 10 µM. This is another data set of the same source.

For FLUPENTIXOL [listing 1 of 2 here], 1550 nM corresponded to half-maximal inhibition in assay [1] (IC50).

FLUPENTIXOL [listing 2 of 2 here]: in assay [2], the inhibition (as a rule, the relative decrease from the control value, in per cent) was determined as 89.4%.

For the molecule PHENYLMERCURIC ACETATE, the inhibition in assay [2] came out at 60.2%. As for `O=C(NO)c1ccc2[nH]c(=O)c(CCCc3ccccc3)nc2c1`, in assay [3], the IC50 (in general, the concentration that inhibits the measured activity by half) was 1.55 nM. The inhibition in assay [4] came out at 100%. Take `CN(C)C(=O)Nc1cccc(-c2ccc(N(C)C)cc2)c1`: in assay [3], the concentration for half-maximal inhibition (IC50) is 1610 nM. For the same molecule, the inhibition in assay [4] was found to be 96.2%.

Consider `O=c1c(-c2ccc(O)cc2)coc2cc(O)ccc12` [DAIDZEIN], for which the IC50 in assay [3] stood at 917 nM. Also, the inhibition in assay [4] turned out to be 101%. Turning to `O=c1c(O)c(-c2ccc(O)cc2)oc2cc(O)cc(O)c12` [KAEMPFEROL], half-maximal inhibition in assay [3] (IC50) was put at 1710 nM. In addition, the inhibition in assay [4] was 102%. For `COc1ccc(-c2cc(=O)c3c(O)c(OC)c(O)cc3o2)cc1OC` [EUPATILIN], in that order: 1320 nM and 101%.

`COc1cccc(/C=N/C=N/c2cccc(OC)c2)c1` gave an IC50 in assay [3] of 49 nM. In addition, the inhibition in assay [4] was determined as 107%. As for `O=C(Nc1cccc(Cl)c1)c1ccccn1`, in assay [3], the IC50 is 333 nM. Further, the inhibition in assay [4] turned out to be 102%. The molecule `O=C(/C=C/c1ccc(O)c(O)c1)c1ccc(O)cc1O` [BUTEIN] registered a half-inhibitory concentration (IC50) in assay [3] of 2150 nM. For the same molecule, the inhibition in assay [4] was 96.9%. The matching figures for `OCCN1CCN(CC/C=C2/c3ccccc3Sc3ccc(Cl)cc32)CC1` [ZUCLOPENTHIXOL]: 3380 nM and 76.6%. In turn, `O=C(Nc1ccccc1C(=O)Nc1ccc(CCO)cc1)c1ccc([N+](=O)[O-])cc1` registered an IC50 in assay [3] of 2230 nM. Besides, the inhibition in assay [4] turned out to be 84.6%. Molecule `CNC(=O)c1ccccc1Sc1ccc2c(/C=C/c3ccccn3)n[nH]c2c1` [AXITINIB] came in with a half-maximal inhibitory concentration (IC50) in assay [3] of 404 nM. The inhibition in assay [4] came out at 103%. The matching figures for `COc1ccc2[nH]c(C(=O)c3ccccc3)cc2c1`: 772 nM and 103%.

Regarding `Oc1ccc(OCc2ccccc2)cc1` [MONOBENZONE], the IC50 in assay [3] was determined as 989 nM. Also, in assay [4], the inhibition came to 86.6%.

In assay [3], `NC(=O)Nc1sc(-c2ccc(F)cc2)cc1C(N)=O` returned a concentration for half-maximal inhibition (IC50) of 1970 nM. Further, the inhibition in assay [4] turned out to be 88.8%. The matching figures for `NS(=O)(=O)Oc1ccc2c3c(c(=O)oc2c1)CCCCC3` [IROSUSTAT]: 860 nM and 87.9%. As to `O=C1Nc2cc(Br)ccc2/C1=C1/Nc2ccccc2/C1=N\O` [6BIO], in assay [3], the IC50 is 698 nM. For the same molecule, in assay [4], the inhibition was 89.8%. With `CCc1ccc(OCc2ccccc2C(=O)Nc2ccc3nc(C)cc(N)c3c2)cc1`, 3490 nM corresponded to half-maximal inhibition in assay [3] (IC50). The inhibition in assay [4] worked out at 78.9%.
